Legend:
Rat M4 = target: T1, Rat M4 (Rattus norvegicus, UniProt P08485); assay: mAChR M4 cell-based functional assay (calcium flux, rat M4/Gqi5/CHO cells); settings: for remaining activity at 30 µM: CHO, % ACh maximum at 30 μM, read-out: Emin (%) rat M4; for IC50: antagonist mode, decrease of the response to an EC80 concentration of acetylcholine, CHO-K1 cells with Gqi5
T1 construct: expressed in transfected cells; host or cells: CHO-K1 (ATCC), co-transfected with chimeric G protein Gqi5
T1 sequence (P08485 1-478): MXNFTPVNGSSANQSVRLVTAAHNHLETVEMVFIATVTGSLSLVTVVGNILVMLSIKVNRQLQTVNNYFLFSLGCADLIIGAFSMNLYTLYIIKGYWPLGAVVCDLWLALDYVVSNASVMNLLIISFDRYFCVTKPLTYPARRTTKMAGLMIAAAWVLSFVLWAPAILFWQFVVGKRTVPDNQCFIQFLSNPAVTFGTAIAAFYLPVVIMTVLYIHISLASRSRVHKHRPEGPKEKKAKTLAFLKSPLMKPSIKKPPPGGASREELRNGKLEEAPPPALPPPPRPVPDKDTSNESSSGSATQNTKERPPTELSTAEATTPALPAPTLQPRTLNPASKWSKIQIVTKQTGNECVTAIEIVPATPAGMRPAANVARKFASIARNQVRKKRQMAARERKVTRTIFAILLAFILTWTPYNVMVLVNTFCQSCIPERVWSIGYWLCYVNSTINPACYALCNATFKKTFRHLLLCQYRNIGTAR
Method: (§1) Human or rat M4 cDNA, along with the chimeric G protein Gqi5, were transfected into Chinese hamster ovary (CHO-K1) cells purchased from the American Type Culture Collection using Lipofectamine2000. M4/Gqi5/CHO cells were grown in Ham's F-12 medium containing 10% heat-inactivated fetal bovine serum (FBS), 20 mM HEPES, 500 μg/mL G418 sulfate, and 200 μg/mL Hygromycin B.
(§2) For high throughput measurement of agonist-evoked increases in intracellular calcium, CHO-K1 cells stably expressing muscarinic receptors were plated in growth medium lacking G418 and hygromycin at 15,000 cells/20 μL/well in Greiner 384-well black-walled, tissue culture (TC)-treated, clear-bottom plates (VWR). Cells were incubated overnight at 37° C. and 5% CO2. The next day, cells were washed using an ELX 405 (BioTek) with assay buffer; the final volume was then aspirated to 20 μL. Next, 20 μL of a 2.3 μM stock of Fluo-4/acetoxymethyl ester (Invitrogen, Carlsbad, Calif.), prepared as a 2.3 mM stock in DMSO and mixed in a 1:1 ratio with 10% (w/v) Pluronic F-127 and diluted in assay buffer, was added to the wells and the cell plates were incubated for 50 min at 37° C. and 5% CO2. Dye was removed by washing with the ELX 405 and the final volume was aspirated to 20 μL. Compound master plates were formatted in a 10 point concentration-response curve (CRC) format (1:3 dilutions) in 100% DMSO with a starting concentration of 10 or 1 mM using a BRAVO liquid handler (Agilent). Test compound CRCs were then transferred to daughter plates (240 nL) using the Echo acoustic plate reformatter (Labcyte, Sunnyvale, Calif.) and then diluted into assay buffer (40 μL) to a 2× stock using a Thermo Fisher Combi (Thermo Fisher Scientific, Waltham, Mass.).
(§3) Calcium flux was measured using the Functional Drug Screening System (FDSS) 6000 or 7000 (Hamamatsu Corporation, Tokyo, Japan) as an increase in the fluorescent static ratio. Compounds were applied to cells (20 μL, 2×) using the automated system of the FDSS at 2 seconds into the protocol and the data were collected at 1 Hz. At 143 s, 10 μL of an EC20 concentration of the muscarinic receptor agonist acetylcholine was added (5×), followed by the addition of 12 μL of an EC80 concentration of acetylcholine at the 268 s time point (5×). Agonist activity was analyzed as a concentration-dependent increase in calcium mobilization upon compound addition. Positive allosteric modulator activity was analyzed as a concentration-dependent increase in the EC20 acetylcholine response. Antagonist activity was analyzed as a concentration-dependent decrease in the EC80 acetylcholine response for the purposes of the tables herein, an IC50 (inhibitory concentration 50) was calculated as a concentration-dependent decrease of the response elicited by an EC80 concentration of acetylcholine, Concentration-response curves were generated using a four-parameter logistical equation in XLFit curve fitting software (IDBS, Bridgewater, N.J.) for Excel (Microsoft, Redmond, Wash.) or Prism (GraphPad Software, Inc., San Diego, Calif.) or the Dotmatics software platform (Dotmatics, Bishop's Stortford, UK).
(§4) Compounds were synthesized as described above. Activity (IC50 and Emin) was determined in the mAChR M4 cell-based functional assay as described above and the data are shown in Table 2. The compound number corresponds to the compound numbers used in Examples 1-3.

Human M4 = target: T2, Human M4 (Homo sapiens, UniProt P08173); assay: mAChR M4 cell-based functional assay (calcium flux, human M4/Gqi5/CHO cells); settings: for remaining activity at 30 µM: CHO, % ACh maximum at 30 μM, read-out: Emin (%) human M4; for IC50: antagonist mode, decrease of the response to an EC80 concentration of acetylcholine, CHO-K1 cells with Gqi5
T2 construct: expressed in transfected cells; host or cells: CHO-K1 (ATCC), co-transfected with chimeric G protein Gqi5
T2 sequence (P08173 1-479): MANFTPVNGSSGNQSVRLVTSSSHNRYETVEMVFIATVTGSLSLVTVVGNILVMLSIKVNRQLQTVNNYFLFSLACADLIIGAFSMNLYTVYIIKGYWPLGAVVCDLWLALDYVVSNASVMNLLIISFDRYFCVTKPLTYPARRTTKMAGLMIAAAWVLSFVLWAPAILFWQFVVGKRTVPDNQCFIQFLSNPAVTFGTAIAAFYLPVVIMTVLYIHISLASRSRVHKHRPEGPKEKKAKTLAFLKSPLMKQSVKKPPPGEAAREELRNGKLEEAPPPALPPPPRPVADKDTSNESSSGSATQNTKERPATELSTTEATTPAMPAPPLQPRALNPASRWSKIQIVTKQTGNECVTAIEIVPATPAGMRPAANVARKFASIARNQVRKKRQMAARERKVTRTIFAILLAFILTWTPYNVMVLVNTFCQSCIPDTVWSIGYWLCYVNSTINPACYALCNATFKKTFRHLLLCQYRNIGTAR
Method: as §1, §2, §3, §4

Cc1cnn(C)c1-c1ccc(N2CCC3CN(CC45CC6CC(CC(C6)C4)C5)CC32)nn1 (stereo not shown) [Compound 1, 5-(Adamantan-1-ylmethyl)-1-(6-(1,4-dimethyl-1H-pyrazol-5-y)pyridazin-3-yl)octahydropyrrolo[3,4-b]pyrrole]
remaining activity at 30 µM (Rat M4): 4.61%
IC50 (Rat M4): 0.509 µM

Cc1cnn(C)c1-c1ccc(N2CCC3CN(CCCC(C)(C)C)CC32)nn1 (stereo not shown) [Compound 2, 1-(6-(1,4-Dimethyl-1H-pyrazol-5-yl)pyridazin-3-yl)-5-(4,4-dimethylpentyl)octahydropyrrolo[3,4-b]pyrrole]
remaining activity at 30 µM (Human M4): 3.83%
IC50 (Human M4): 0.647 µM
remaining activity at 30 µM (Rat M4): 6.85%
IC50 (Rat M4): 1.5 µM

Cc1cnn(C)c1-c1ccc(N2CCC3CN(CC4CC5C=CC4C5)CC32)nn1 (stereo not shown) [Compound 3, 5-(bicyclo[2.2.1]hept-5-en-2-ylmethyl)-1-(6-(1,4-dimethyl-1H-pyrazol-5-yl)pyridazin-3-yl)octahydropyrrolo[3,4-b]pyrrole]
remaining activity at 30 µM (Human M4): 4.28%
IC50 (Human M4): 0.8 µM
remaining activity at 30 µM (Rat M4): 16.8%
IC50 (Rat M4): 3.57 µM

Cc1cccnc1CN1CC2CCN(c3ccc(-c4c(C)cnn4C)nn3)C2C1 (stereo not shown) [Compound 4, 1-(6-(1,4-dimethyl-1H-pyrazol-5-yl)pyridazin-3-yl)-5-((3-methylpyridin-2-yl)methyl)octahydropyrrolo[3,4-b]pyrrole]
remaining activity at 30 µM (Human M4): 26.2%
IC50 (Human M4): > 10 µM
remaining activity at 30 µM (Rat M4): 63.1%
IC50 (Rat M4): > 10 µM

Cc1cnn(C)c1-c1ccc(N2CCC3CN(Cc4ccccc4)CC32)nn1 (stereo not shown) [Compound 5, 5-benzyl-1-(6-(1,4-dimethyl-1H-pyrazol-5-yl)pyridazin-3-yl)octahydropyrrolo[3,4-b]pyrrole]
remaining activity at 30 µM (Human M4): 46.7%
IC50 (Human M4): > 10 µM

Cc1cnn(C)c1-c1ccc(N2CCC3CN(CCc4ccccc4)CC32)nn1 (stereo not shown) [Compound 6, 1-(6-(1,4-ditnethyl-1H-pyrazol-5-yl)pyridazin-3-yl)-5-phenethyloctahydropyrrolo[3,4-b]pyrrole]
remaining activity at 30 µM (Human M4): 7.19%
IC50 (Human M4): 1.98 µM
remaining activity at 30 µM (Rat M4): 30.9%
IC50 (Rat M4): > 10 µM

Cc1cnn(C)c1-c1ccc(N2CCC3CN(CCCc4ccccc4)CC32)nn1 (stereo not shown) [Compound 7, 1-(6-(1,4-dimethyl-1H-pyrazol-5-yl)pyridazin-3-yl)-5-(3-phenylpropyl)octahydropyrrolo[3,4-b]pyrrole]
remaining activity at 30 µM (Human M4): 6.12%
IC50 (Human M4): 1.43 µM
remaining activity at 30 µM (Rat M4): 26.2%
IC50 (Rat M4): > 10 µM

Cc1cnn(C)c1-c1ccc(N2CCC3CN(CC4CCN(Cc5ccccc5)CC4)CC32)nn1 (stereo not shown) [Compound 8, 5-((1-benzylpiperidin-4-yl)methyl)-1-(6-(1,4-dimethyl-1H-pyrazol-5-yl)pyridazin-3-yl)octahydropyrrolo[3,4-b]pyrrole]
remaining activity at 30 µM (Human M4): 6.61%
IC50 (Human M4): 3.38 µM
remaining activity at 30 µM (Rat M4): 32.4%
IC50 (Rat M4): > 10 µM

Cc1cnn(C)c1-c1ccc(N2CCC3CN(CCC(C)c4ccccc4)CC32)nn1 (stereo not shown) [Compound 9, 1-(6-(1,4-dimethyl-1H-pyrazol-5-yl)pyridazin-3-yl)-5-(3-phenylbutyl)octahydropyrrolo[3,4-b]pyrrole]
remaining activity at 30 µM (Human M4): 4.33%
IC50 (Human M4): 0.498 µM
remaining activity at 30 µM (Rat M4): 6.32%
IC50 (Rat M4): 2.33 µM

Cc1cnn(C)c1-c1ccc(N2CCC3CN(CC4C5CC6CC(C5)CC4C6)CC32)nn1 (stereo not shown) [Compound 10, 5-(adamantan-2-ylmethyl)-1-(6-(1,4-dimethyl-1H-pyrazol-5-yl)pyridazin-3-yl)octahydropyrrolo[3,4-b]pyrrole]
remaining activity at 30 µM (Human M4): 4.12%
IC50 (Human M4): 0.453 µM
remaining activity at 30 µM (Rat M4): 4.82%
IC50 (Rat M4): 1.89 µM

Cc1cnn(C)c1-c1ccc(N2CCC3CN(CC(C)c4ccccc4)CC32)nn1 (stereo not shown) [Compound 11, 1-(6-(1,4-dimethyl-1H-pyrazol-5-yl)pyridazin-3-yl)-5-(2-phenylpropyl)octahydropyrrolo[3,4-b]pyrrole]
remaining activity at 30 µM (Human M4): 15.1%
IC50 (Human M4): > 10 µM
remaining activity at 30 µM (Rat M4): 55.5%
IC50 (Rat M4): > 10 µM

CC/C=C\CCCN1CC2CCN(c3ccc(-c4c(C)cnn4C)nn3)C2C1 (stereo not shown) [Compound 12, (Z)-1-(6-(1,4-dimethyl-1H-pyrazol-5-yl)pyridazin-3-yl)-5-(hept-4-en-1-yl)octahydropyrrolo[3,4-b]pyrrole]
remaining activity at 30 µM (Human M4): 15.1%
IC50 (Human M4): > 10 µM
remaining activity at 30 µM (Rat M4): 45.2%
IC50 (Rat M4): > 10 µM

CCCCCCN1CC2CCN(c3ccc(-c4c(C)cnn4C)nn3)C2C1 (stereo not shown) [Compound 13, 1-(6-(1,4-dimethyl-1H-pyrazol-5-yl)pyridazin-3-yl)-5-hexyloctahydropyrrolo[3,4-b]pyrrole]
remaining activity at 30 µM (Human M4): 7.23%
IC50 (Human M4): 2.15 µM
remaining activity at 30 µM (Rat M4): 28.4%
IC50 (Rat M4): > 10 µM

Cc1cnn(C)c1-c1ccc(N2CCC3CN(CC(c4ccccc4)c4ccccc4)CC32)nn1 (stereo not shown) [Compound 14, 1-(6-(1,4-dimethyl-1H-pyrazol-5-yl)pyridazin-3-yl)-5-(2,2-diphenylethyl)octahydropyrrolo[3,4-b]pyrrole]
remaining activity at 30 µM (Human M4): 8.96%
IC50 (Human M4): 9.19 µM
remaining activity at 30 µM (Rat M4): 48.3%
IC50 (Rat M4): > 10 µM

CCc1ccncc1-c1ccc(N2CCC3CN(CC45CC6CC(CC(C6)C4)C5)CC32)nn1 (stereo not shown) [Compound 15, 5-(adamantan-1-ylmethyl)-1-(6-(4-ethylpyridin-3-yl)pyridazin-3-yl)octahydropyrrolo[3,4-b]pyrrole]
remaining activity at 30 µM (Human M4): 4.18%
IC50 (Human M4): 0.899 µM
remaining activity at 30 µM (Rat M4): 3.98%
IC50 (Rat M4): 1.71 µM

Cc1nn(C)cc1-c1ccc(N2CCC3CN(CC45CC6CC(CC(C6)C4)C5)CC32)nn1 (stereo not shown) [Compound 16, 5-(adamantan-1-ylmethyl)-1-(6-(1,3-dimethyl-1H-pyrazol-4-yl)pyridazin-3-yl)octahydropyrrolo[3,4-b]pyrrole]
remaining activity at 30 µM (Human M4): 4.02%
IC50 (Human M4): 0.191 µM
remaining activity at 30 µM (Rat M4): 4.09%
IC50 (Rat M4): 0.753 µM

Fc1ccc(Cl)c(-c2ccc(N3CCC4CN(CC56CC7CC(CC(C7)C5)C6)CC43)nn2)c1 (stereo not shown) [Compound 17, 5-(adamantan-1-ylmethyl)-1-(6-(2-chloro-5-fluorophenyl)pyridazin-3-yl)octahydropyrrolo[3,4-b]pyrrole]
remaining activity at 30 µM (Human M4): 20.2%
IC50 (Human M4): > 10 µM
remaining activity at 30 µM (Rat M4): 49.1%
IC50 (Rat M4): > 10 µM
